Results reported in publication PMC9820430, “New Affordable Methods for Large-Scale Isolation of Major Olive Secoiridoids and Systematic Comparative Study of Their Antiproliferative/Cytotoxic Effect on Multiple Cancer Cell Lines of Different Cancer Origins” (International Journal of Molecular Sciences, 2022).
Read-outs that look alike come from different tables or passages of the source. Marks after values point to notes of the source that are not given here.

How the values were obtained:
[1] = tested on: MCF 10A; assay: ATP-based luminescence cell viability assay (ViaLight), 72 h; parameters: species or system human; conditions: MCF 10A (non-tumorigenic epithelial), 72 h treatment, read-out: EC50 Values of Olive Oil Polyphenols
Experimental: (§1) The antiproliferative/cytotoxic effects of the selected OOPs on each cell line were assessed by measuring the cellular ATP levels after 72 h treatments using an ATP-based luminescence assay. This assay, initially developed as a tumor chemosensitivity assay, has shown considerable promise as a general in vitro toxicity assay due to its high sensitivity that allows the detection of a small number of cells. Consequently, it can be applied to both cancer cell lines and primary tissue cells. […] The EC50 values were calculated by nonlinear regression (curve fit) using a sigmoidal dose–response equation (Figure 2A and Figure S2).
(§2) The OOPs tested in this study were first dissolved in an appropriate DMSO volume such as to prepare a final stock solution of 50 mM, which was further used to prepare various compound concentrations in DMSO-based solutions. The final DMSO concentration in the cell culture was maintained constant in all treated groups of any given experiment and never exceeded the value of 0.2% (v/v). For the treatment experiments, cells were plated in 96-well culture plates, in 100 μL of complete medium at a seeding density of 5000–10,000 cells/well—depending on cells’ size and doubling time—and were allowed to adhere overnight (~16 h). The next day, 150 μL of complete medium was added to each well and the cells were treated with various concentrations of OOPs. Each concentration was tested in triplicate and was repeated 2–3 times. To prepare the final concentration solutions, 0.5 μL of a 500× stock of each tested compound in DMSO was added directly into each well in a final volume of 250 μL culture medium and was gently mixed by pipetting. Control wells were prepared under the same experimental conditions by adding only DMSO at a final concentration of 0.2% (v/v). Compounds were not renewed during the entire period of cell exposure. All cells were cultured at 37 °C in a 5% (v/v) CO2 for 24, 48 or 72 h.
(§3) Briefly, after the treatment with OOPs, the adapted medium was removed from the dish wells and the cells were washed twice with medium without FBS. Then, the C-lysis (LT27-076) was diluted in PBS (1:2) and a volume of 50 μL was added to each well. Cells were incubated with C-lysis for at least 10 min. Finally, an equal volume of lysed cells from each well and ATP monitoring reagent (AMR; LT27-212) was transferred to the wells of a white-walled illuminometer plate (Greiner bio-one; 655074). Cell viability was quantified by measuring luminescence using a multi-mode microplate reader Safire^2 Tecan (software Magellan V6.00 STD.2PC WIN.20000/XP).

[2] = tested on: NHDF; assay: as above; conditions: NHDF (normal human dermal fibroblasts); 72 h treatment; read-out: EC50 Values of Olive Oil Polyphenols
Experimental: as §1, §2, §3

[3] = tested on: PANC-1; assay: EdU incorporation cell proliferation assay, 24 h; type: cell-based, human; conditions: for % EdU +ve ± SE (S-phase cells): 24 h treatment at EC50 concentration; for % Inhibition ± SE of cell proliferation: 24 h at EC50, normalized with the control
Experimental: (§4) For this purpose, ten cancer cell lines (i.e., MDA-MB 231, SK-BR-3, MCF-7, A2058, SK-MEL-28, AGS, HepG-2, PANC-1, H1299 and Hela) originating from breast, melanoma, stomach, hepatic, pancreatic, lung and cervical tumors were analyzed in parallel with control samples (i.e., the same cells treated only with 0.2% (v/v) DMSO). […] Subsequently, the treated cells were allowed to incorporate 5-ethynyl-2′-deoxyuridine (EdU) into replicating DNA according to the protocol described in detail in the Experimental Section. EdU, a thymidine analog, can be incorporated into DNA in vivo and detected later by using copper-catalyzed azide–alkyne cycloaddition (click reaction) without prior DNA denaturation. The pool of cells in the S phase can be then easily detected by fluorescence (FL) microscopy or by flow cytometry by analyzing the incorporation of EdU in replicating DNA of single cells. In this study, after EdU incorporation, the nuclei of the entire cell population were stained with Hoechst and imaged by confocal microscopy (Experimental Section). EdU-positive nuclei, marked by green FL, as well as the total number of nuclei, marked by blue FL, were enumerated by applying the Icy image analysis algorithm on the digital images acquired by confocal microscopy.
(§5) Human cancer cells were plated onto sterile glass coverslips (10-mm diameter, 5161063, ThermoFisher Scientific, Waltham, MA, USA) in 24-well tissue culture plates, at a density 5 times the density of cells seeded in 96-well plate and at a final medium volume of 500 μL. In order to obtain homogeneous plating, 250 μL of the medium was added directly to the wells already containing coverslips. Using a tip perpendicularly, coverslips were pressed in order to ensure their attachment to the bottom of the well. The cells were then seeded by adding 250 μL of single-cell suspension drop by drop following a cross path. Immediately after seeding, the plate was shaken back and forth at least ten times to achieve homogeneous plating. The cells were allowed to adhere overnight (~16 h) at 37 °C and 5% (v/v) CO2. The next day, a volume of 500 μL fresh medium was added to each well and the treatment with OOPs was initiated by adding directly to the wells 2 μL of OOPs from the 500× stock in DMSO and immediately mixed afterward by pipetting. […] Control cells were prepared under the same experimental conditions using DMSO instead of the OOPs’ solutions in DMSO at the same final concentration (0.2% (v/v) DMSO). […] Each condition was performed in duplicate. After treatment with the OOPs, live proliferating mammalian cells were labeled with 5-ethynyl-2’-deoxyuridine (EdU), a nucleoside analog of thymidine, using the Cell proliferation kit III (EdU-FM, PK-CA724-488FM, Promokine, Heidelberg, Germany). More specifically, a 20 μM EdU solution from a 10 mM stock in DMSO was prepared in a fresh culture medium. Culture supernatant was removed from treated cells to leave only 250 μL. An equal volume of 20 μM EdU solution was added and mixed with the medium to obtain a 10 μΜ EdU final concentration. The treated cells were incubated for the desired time of pulse length (2–4 h) under conditions optimal for each cell type depending on each cell line’s doubling time. Following incubation, cells were washed twice with PBS, then fixed with 4% (w/v) paraformaldehyde in PBS for 15 min at room temperature (RT), and subsequently washed twice with 3% (w/v) BSA for 5 min each time. Cells were permeabilized by incubation (20 min, RT, in the dark) with 0.5% (v/v) Triton-X 100 in PBS. Following permeabilization the cells were washed twice with 3% (w/v) BSA in PBS and incubated for 30 min with the reaction cocktail, according to the instructions of the Cell proliferation kit III (EdU-488; FM). After staining for replicating DNA, the cells were washed three times with 3% (w/v) BSA in PBS, and were then incubated (10 min, at RT) with Hoechst 33342 in PBS (1:10.000) to visualize all the nuclei. […]

[4] = tested on: AGS; assay: EdU incorporation cell proliferation assay, 24 h; type: cell-based, human; conditions: for % EdU +ve ± SE (S-phase cells): 24 h treatment at EC50 concentration; for % Inhibition ± SE of cell proliferation: 24 h at EC50, normalized with the control
Experimental: as §4, §5

[5] = tested on: HepG-2; assay: EdU incorporation cell proliferation assay, 24 h; type: cell-based, human; conditions: for % EdU +ve ± SE (S-phase cells): 24 h treatment at EC50 concentration; for % Inhibition ± SE of cell proliferation: 24 h at EC50, normalized with the control
Experimental: as §4, §5

[6] = tested on: H1299; assay: EdU incorporation cell proliferation assay, 24 h; type: cell-based, human; conditions: for % EdU +ve ± SE (S-phase cells): 24 h treatment at EC50 concentration; for % Inhibition ± SE of cell proliferation: 24 h at EC50, normalized with the control
Experimental: as §4, §5

Molecule | EC50 ([1]; Homo sapiens) [µM] | EC50 [2] [µM] | % EdU +ve ± SE (S-phase cells) [3] [%] | % EdU +ve ± SE (S-phase cells) [4] | % EdU +ve ± SE (S-phase cells) [5] [%] | % EdU +ve ± SE (S-phase cells) [6] [%] | % Inhibition ± SE of cell proliferation [3] [%] | % Inhibition ± SE of cell proliferation [4] | % Inhibition ± SE of cell proliferation [5] [%] | % Inhibition ± SE of cell proliferation [6] [%] | EC50 [1] [µM]
C/C=C(/C=O)[C@@H](CC=O)CC(=O)OCCc1ccc(O)cc1 [compound 1, oleocanthal] | 7 ± 0.3 | 24.7 ± 0.4 | 23.6 ± 5.8 | 16.2 ± 4.4 ^a % | 26.4 ± 1.5 | 14.0 ± 1.9 |  |  |  |  | 
COC(=O)C1=COC(C)[C@@H](C=O)[C@@H]1CC(=O)OCCc1ccc(O)c(O)c1 (mixture of isomers) [3a,b, oleuropein aglycone] | 9.5 ± 0.4 | 42.7 ± 0.5 | 21.9 ± 5.3 | 18.4 ± 1.5 ^a % | 10.6 ± 3.1 | 31.9 ± 5.9 | 23.6 ± 0.8 | 28.9 ± 1.5 ^a % | 28.4 ± 0.1 | 29.1 ± 6.5 | 
ligstroside aglycone [4a,b] |  | 46.5 ± 5 | 22.1 ± 7.2 | 14.0 ± 0.5% | 12.0 ± 2.0 |  | 23.4 ± 2.7 | 31.6 ± 2.6% | 27.0 ± 1.1 |  | 55.8 ± 2.7
C/C=C(/C=O)[C@@H](CC=O)CC(=O)OCCc1ccc(O)c(O)c1 [compound 2, oleacein] | 24.7 ± 2.7 | 49 ± 1.2 | 37.6 ± 7.1 | 14.7 ± 0.4% |  | 13.2 ± 3.5 |  | 31.0 ± 3.5% |  | 47.8 ± 4.1 | 
